# According to US20130029981A1, “COMPOUNDS, COMPOSITIONS, AND METHODS FOR CONTROLLING BIOFILMS” (Katholieke Universiteit Leuven, priority 2009, published 2013):
# Like-named read-outs stand apart in the source and are kept apart here.
# Key:
# S. Typhimurium ATCC14028 = test: Static peg assay for prevention of biofilm formation (Calgary device, crystal violet); type: cell-based, Salmonella Typhimurium
# Protocol: (§1) Evaluation of the biofilm inhibitory activity of some substituted 2-amino-1H-imidazoles of the invention was carried out by growing up biofilms of S. Typhimurium ATCC14028 or SL1344 or Pseudomonas aeruginosa PA14 in the presence of different concentrations (1/2 dilution series) of biofilm inhibitors, by using the Calgary biofilm device. After an incubation period of 24 hours at 25° C. or 37° C. or 48 hours at 16° C. the biofilms were visualized by crystal violet staining. In the next step the stain was extracted from the biofilm with 30% acetic acid. The absorbance of the resolubilized stain at 570 nm is a measure of the amount of biofilm formed.
# In examples 2 and 3, the following materials and methods were used.
# The device used for biofilm formation is a platform carrying 96 polystyrene pegs (Nunc no. 445497) that fits as a microtiter plate lid with a peg hanging into each microtiter plate well (Nunc no. 269789). Biofilm formation assays were carried out at 16° C., 25° C. and 37° C.
# For biofilm assays at 16° C. and 25° C., two-fold serial dilutions of the compounds in 100 μl liquid TSB 1/20 broth per well were prepared in the microtiter plate. Subsequently, an overnight culture of S. Typhimurium ATCC14028 or SL1344 (grown up in LB medium) was diluted 1:100 into TSB 1/20 broth and 100 μl (ca. 10^6 cells) was added to each well of the microtiter plates, resulting in a total amount of 200 μl medium per well. The pegged lid was placed on the microtiter plate and the plate was incubated for 48 hours at 16° C. or for 24 hours at 25° C. without shaking. During this incubation period biofilms were formed on the surface of the pegs. In case of the assay at 16° C., after 24 hours the lid was transferred into a new plate with medium and the specific molecules used for testing. […] For quantification of biofilm formation, the pegs were washed once in 200 μl phosphate buffered saline (PBS). The remaining attached bacteria were stained for 30 minutes with 200 μl 0.1% (w/v) crystal violet in an isopropanol/methanol/PBS solution (v/v 1:1:18). Excess stain was rinsed off by placing the pegs in a 96-well plate filled with 200 μl distilled water per well. After the pegs were air dried (30 min), the dye bound to the adherent cells was extracted with 30% glacial acetic acid (200 μl). The OD570 of each well was measured using the VERSAmax microtiter plate reader. The IC50 value for each compound was determined from concentration gradients in two or three independent experiments (with 2 or 3 repeats per experiment), by using the GraphPad software of Prism.
# For biofilm assays at 37° C., two-fold serial dilutions of the compounds in 50 μl liquid CFA broth per well were prepared in the microtiter plate. Subsequently, an overnight culture of S. Typhimurium ATCC 14028 was diluted 1:100 into CFA broth and 100 μl (ca. 10^6 cells) was added to each well of the microtiter plates, resulting in a total amount of 150 μl medium per well. The pegged lid was placed on the microtiter plate and the plate was incubated for 24 hours at 37° C. without shaking. During incubation the plates were placed in a humidity controlled container to prevent evaporation of the growth medium. Quantification of biofilm formation was performed similarly as described above for the assays at 16° C. and 25° C.
# as §1, with “imidazo[1,2-a]pyrimidinium bromide salts” for “2-amino-1H-imidazoles”
# [1] = test system: Pseudomonas aeruginosa PA14; test: as above; type: cell-based
# Protocol: as §1
# The device used for Pseudomonas aeruginosa biofilm formation is the same platform carrying polystyrene pegs as described above for Salmonella Typhimurium.
# Two-fold serial dilutions of the compounds in 100 μl liquid broth per well were prepared in the microtiter plate. Subsequently, an overnight culture of P. aeruginosa PA14 (grown up in TSB medium) was diluted 1:100 into liquid broth and 100 μl was added to each well of the microtiter plates, resulting in a total amount of 200 μl medium per well. The pegged lid was placed on the microtiter plate and the plate was incubated for 24 hours at 25° C., 30° C. or 37° C. without shaking. During this incubation period biofilms were formed on the surface of the pegs. The liquid broth used for the tests at 25° C. was TSB 1/20. The tests at 37° C. were performed in CFA and/or LBNS broth. During incubation at 30° C. and 37° C. the plates were placed in a humidity controlled container to prevent evaporation of the growth medium. Quantification of biofilm formation was performed similarly as described previously for the S. Typhimurium biofilm assays.
# as §1, with “imidazo[1,2-a]pyrimidinium bromide salts” for “2-amino-1H-imidazoles”
# as §1, with “substituted imidazo[1,2-a]-pyrimidinium bromide and perchlorate salts produced according to examples 3 and 5” for “substituted 2-amino-1H-imidazoles of the invention”, “C.” for “C. or 37° C. or 48 hours at 16° C.”, “nm was taken as” for “nm is”
# [2] = S. Typhimurium ATCC 14028, 25° C., read-out: S. Typhimurium IC50 (biofilm formation)
# [3] = P. aeruginosa PA14, 25° C., read-out: P. aeruginosa IC50 (biofilm formation)
# [4] = 25° C., 24 hours, Table 15, read-out: (1) IC50 (biofilm inhibition)
# [5] = 25° C., Table 16, read-out: S. Typhimurium IC50 (biofilm formation)
# [6] = 25° C., 24 hours, Table 15, read-out: (2) IC50 (biofilm inhibition)
# [7] = 25° C., Table 16, read-out: P. aeruginosa IC50 (biofilm formation)
# [8] = Table 21, S. Typhimurium ATCC14028, 25° C., read-out: S. Typhimurium IC50 (biofilm formation)
# [9] = Table 21, P. aeruginosa PA14, 25° C., read-out: P. aeruginosa IC50 (biofilm formation)
# [10] = 25° C., Table 18, read-out: S. Typhimurium IC50 (biofilm formation)
# [11] = 25° C., Table 18, read-out: P. aeruginosa IC50 (biofilm formation)
# [12] = S. Typhimurium ATCC 14028, 25° C., read-out: IC50 for biofilm inhibition (25° C.)
# [13] = 25° C., strain not given, read-out: IC(50), preventive activity against S. typhimurium biofilms
# [14] = Salmonella enterica, 25° C., Table 11, read-out: IC50 (biofilm formation)
# [15] = Salmonella enterica, 25° C., Table 14, read-out: IC50 biofilm inhibition
compound,measurement,setting,value
CC(C)Nc1nc(-c2ccccc2)c[nH]1 [Compound 82],IC50,S. Typhimurium ATCC14028; [2],> 800 µM
same,IC50,[1]; [3],261 µM
CCCCCCCCCCCN1c2nccc[n+]2CC1(O)c1ccccc1 (racemic) [Compound 11],IC50,S. Typhimurium ATCC14028; [4],24.6 µM
same,IC50,S. Typhimurium ATCC14028; [5],24.6 µM
same,IC50,[1]; [6],28.6 µM
same,IC50,[1]; [7],> 800 µM
CCCCCCCCN1c2nccc[n+]2CC1(O)c1ccc(F)cc1 (centres unmarked) [Compound 39],IC50,S. Typhimurium ATCC14028; [4],7.58 µM
same,IC50,S. Typhimurium ATCC14028; [5],7.6 µM
same,IC50,[1]; [6],7.12 µM
same,IC50,[1]; [7],108 µM
CC(C)CNc1ncc(-c2ccc(Br)cc2)[nH]1 [Compound 103],IC50,S. Typhimurium ATCC14028; [2],2.9 µM
same,IC50,[1]; [3],1.2 µM
O=[N+]([O-])c1ccc(-c2cnc(NC3CCCCC3)[nH]2)cc1 [Compound 123],IC50,S. Typhimurium ATCC14028; [8],36.7 µM
same,IC50,[1]; [9],~25 µM
CCCCCCCN1c2nccc[n+]2CC1(O)c1ccc(Cl)cc1 (racemic) [Compound 20],IC50,S. Typhimurium ATCC14028; [4],6.67 µM
same,IC50,S. Typhimurium ATCC14028; [5],6.7 µM
same,IC50,[1]; [6],~12.5 µM
same,IC50,[1]; [7],36.9 µM
O=[N+]([O-])c1cccc(-c2cnc(NC3CCCCC3)[nH]2)c1 [Compound 124],IC50,S. Typhimurium ATCC14028; [8],630 µM
same,IC50,[1]; [9],4.4 µM
CCCCCCCN1c2nccc[n+]2CC1(O)c1ccccc1 (racemic) [Compound 7],IC50,S. Typhimurium ATCC14028; [4],23.4 µM
same,IC50,S. Typhimurium ATCC14028; [5],23.4 µM
same,IC50,[1]; [6],5.89 µM
same,IC50,[1]; [7],24.8 µM
OC1(c2ccccc2)C[n+]2cccnc2N1C1CCCCCCC1 (centres unmarked) [Compound 60],IC50,S. Typhimurium ATCC14028; [4],58.4 µM
same,IC50,S. Typhimurium ATCC14028; [10],58.4 µM
same,IC50,[1]; [6],4.63 µM
same,IC50,[1]; [11],176 µM
OC1(c2ccc(Cl)cc2)C[n+]2cccnc2N1C1CCCCCCCCCCC1 (centres unmarked) [Compound 67],IC50,S. Typhimurium ATCC14028; [10],5.6 µM
same,IC50,[1]; [11],6.8 µM
CCCCN1c2nccc[n+]2CC1(O)c1ccccc1 (racemic) [Compound 3],IC50,S. Typhimurium ATCC14028; [5],410 µM
same,IC50,[1]; [7],> 400 µM
CCCCNc1ncc(-c2ccc(Br)cc2)[nH]1 [Compound 102],IC50,S. Typhimurium ATCC14028; [2],7.1 µM
same,IC50,[1]; [3],9.8 µM
COc1ccc(-c2cnc(N)[nH]2)cc1 [Compound 106],IC50,S. Typhimurium ATCC14028; [2],120 µM
same,IC50,[1]; [3],186 µM
CCCCCN1c2nccc[n+]2CC1(O)c1ccccc1 (racemic) [Compound 5],IC50,S. Typhimurium ATCC14028; [5],278 µM
same,IC50,[1]; [7],565 µM
CCCCCCCCCCCCCN1c2nccc[n+]2CC1(O)c1ccc(Cl)cc1 (racemic) [Compound 26],IC50,S. Typhimurium ATCC14028; [4],316 µM
same,IC50,S. Typhimurium ATCC14028; [5],316 µM
same,IC50,[1]; [6],59 µM
same,IC50,[1]; [7],> 800 µM
CC(C)CN1c2nccc[n+]2CC1(O)c1ccc(Cl)c(Cl)c1 (centres unmarked) [Compound 48],IC50,S. Typhimurium ATCC14028; [5],8 µM
CN1c2nccc[n+]2CC1(O)c1ccc(Cl)cc1 (racemic) [Compound 15],IC50,S. Typhimurium ATCC14028; [5],225 µM
CCCCCN1c2nccc[n+]2CC1(O)c1ccc(Br)cc1 (centres unmarked) [Compound 43],IC50,S. Typhimurium ATCC14028; [5],1.7 µM
"O=[N+]([O-])c1ccc(-c2c[nH]c(NC3CCCCC3)n2)cc1 [R1=H, R2=Cyclohexyl, R3=H, R4=p-NO2—Ph]",IC50,S. Typhimurium ATCC14028; [12],44 µM
"CCCc1cn(CCCNc2ncc(-c3ccc(Cl)c(Cl)c3)[nH]2)nn1 [R3=3,4-diClPh; R4=H; R9=propyl; n=3]",IC50,S. Typhimurium ATCC14028; [13],31.8 µM
CC(C)CN1c2nccc[n+]2CC1(O)c1ccc(Br)cc1 (centres unmarked) [Compound 42],IC50,S. Typhimurium ATCC14028; [5],5.2 µM
"c1ccc(-c2ccc(-c3c[nH]c(NC4CCCC4)n3)cc2)cc1 [R1=H, R2=cyclopentyl, R3=H, R4=Bi—Ph]",IC50,S. Typhimurium ATCC14028; [12],46 µM
CCCCCc1ccc(-c2cn(CCCNc3ncc(-c4ccc(Br)cc4)[nH]3)nn2)cc1 [R3=4-BrPh; R4=H; R9=p-PenPh; n=3],IC50,S. Typhimurium ATCC14028; [13],> 800 µM
CCCc1cn(CCNc2ncc(-c3ccc(Br)cc3)[nH]2)nn1 [R3=4-BrPh; R4=H; R9=propyl; n=2],IC50,S. Typhimurium ATCC14028; [13],25.3 µM
"CCCCCCCC[n+]1c(-c2ccc(-c3ccc(-c4ccccc4)cc3)cc2)cn2cccnc21.[O-][Cl+3]([O-])([O-])[O-] [1-octyl-2-([1,1′:4′,1″-terphenyl]-4-yl)-imidazo[1,2-a]pyrimidin-1-ium perchlorate]",IC50,"S. Typhimurium ATCC14028; Salmonella enterica, 24 h, read-out: (1) IC50 (biofilm inhibition)",5.03 µM
"CCCCNc1nc(-c2ccc(OC)cc2)c[nH]1 [R1=H, R2=Butyl, R3=H, R4=p-MeO—Ph]",IC50,S. Typhimurium ATCC14028; [12],49 µM
CC(C)(C)c1cn(CCNc2ncc(C(c3ccccc3)c3ccccc3)[nH]2)nn1 [R3=CHPh2; R4=H; R9=t-Butyl; n=2],IC50,S. Typhimurium ATCC14028; [13],30.9 µM
"CCCCCCCCCCN1c2nccc[n+]2CC1(O)c1ccc(-c2ccc([N+](=O)[O-])cc2)cc1 (centres unmarked) [1-decyl-2-hydroxy-2-(4′-nitro[1,1′-biphenylyl]-4-yl)-2,3-dihydro-1H-imidazo[1,2-a]pyrimidin-4-ium bromide]",IC50,S. Typhimurium ATCC14028; [4],200 µM
CN1c2nccc[n+]2CC1(O)c1cccc([N+](=O)[O-])c1 (centres unmarked) [Compound 44],IC50,S. Typhimurium ATCC14028; [5],564 µM
CCCc1cn(CCCNc2ncc(-c3ccc(Br)cc3)[nH]2)nn1 [R3=4-BrPh; R4=H; R9=propyl; n=3],IC50,S. Typhimurium ATCC14028; [13],35.3 µM
"CCCCCCN1c2nccc[n+]2C(C)C1(O)c1ccccc1 (centres unmarked) [R1=Hexyl, R3=Ph, R4=Me, 1-hexyl-2-hydroxy-2-phenyl-3-methyl-2,3-dihydro-1H-imidazo[1,2-a]pyrimidin-4-ium bromide]",IC50,S. Typhimurium ATCC14028; [14],218 µM
same,IC50,S. Typhimurium ATCC14028; [15],218 µM
"CCCCCCCCCCN1c2nccc[n+]2CC1(O)c1ccc(SC)cc1 (centres unmarked) [1-decyl-2-hydroxy-2-(4-methylthiophenyl)-2,3-dihydro-1H-imidazo[1,2-a]-pyrimidin-4-ium bromide]",IC50,"S. Typhimurium ATCC14028; Salmonella enterica, 25° C., 24 hours, Table 15, read-out: (1) IC50 (biofilm inhibition)",45.7 µM
"N#Cc1ccc(C2(O)C[n+]3cccnc3N2C2CCCCC2)cc1 (centres unmarked) [R1=cyclohexyl, R3=4-CN—Ph, R4=H, 1-cyclohexyl-2-hydroxy-2-(4-cyanophenyl)-2,3-dihydro-1H-imidazo[1,2-a]pyrimidin-4-ium bromide]",IC50,S. Typhimurium ATCC14028; [14],354 µM
same,IC50,S. Typhimurium ATCC14028; [15],354 µM
